Key:
[1] = tested on: T1, RALH (resorcylic acid lactone hydrolase); assay: LC-HRMS quantification of hydrolyzed product (HZEN), Michaelis-Menten fit; format: biochemical, Aeromicrobium sp. LRDC-1; settings: 50 mM Tris-HCl pH 8.0, 1% BSA, 37 °C, 25 nM RALH, 20 min
T1 construct: recombinant, codon-optimized, E. coli BL21(DE3); N-terminal His6-MBP tag removed with TEV protease; homologue alignment 303/316 residues (RALH vs ZenH); catalytic triad Ser117, Asp142, His292

ScHsp82 (ScHSP82) = molecular target: T2, ScHsp82 (ScHSP82) (Saccharomyces cerevisiae, UniProt P02829); assay: malachite green ATPase inhibition assay; format: biochemical; settings: 1 mM ATP, 4% DMSO, 100 mM Tris-HCl pH 7.5, 20 mM KCl, 6 mM MgCl2, 37 °C, 3 h
T2 construct: gene HSP82; Ni-NTA and gel permeation
T2 sequence (P02829 whole entry): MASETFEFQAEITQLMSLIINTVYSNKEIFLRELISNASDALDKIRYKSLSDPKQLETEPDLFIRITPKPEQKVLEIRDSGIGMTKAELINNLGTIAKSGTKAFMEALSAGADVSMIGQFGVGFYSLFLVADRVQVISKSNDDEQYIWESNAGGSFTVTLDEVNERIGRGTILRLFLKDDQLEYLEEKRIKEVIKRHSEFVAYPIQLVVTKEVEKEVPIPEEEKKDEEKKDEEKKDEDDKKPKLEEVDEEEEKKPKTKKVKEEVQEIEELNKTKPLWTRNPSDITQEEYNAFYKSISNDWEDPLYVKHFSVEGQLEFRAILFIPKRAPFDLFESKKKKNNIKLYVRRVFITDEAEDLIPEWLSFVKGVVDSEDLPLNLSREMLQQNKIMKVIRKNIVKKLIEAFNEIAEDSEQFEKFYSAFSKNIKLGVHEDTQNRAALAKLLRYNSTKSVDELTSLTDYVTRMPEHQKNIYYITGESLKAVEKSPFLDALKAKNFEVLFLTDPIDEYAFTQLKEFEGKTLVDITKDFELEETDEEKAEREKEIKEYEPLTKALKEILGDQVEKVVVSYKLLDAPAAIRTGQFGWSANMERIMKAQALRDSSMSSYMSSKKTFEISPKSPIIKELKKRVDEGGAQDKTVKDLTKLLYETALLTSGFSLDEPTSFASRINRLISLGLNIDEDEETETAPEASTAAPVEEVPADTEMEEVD

[2] = tested on: T1, RALH (resorcylic acid lactone hydrolase); assay: LC-HRMS quantification of hydrolyzed product (HRAD), Michaelis-Menten fit; format: biochemical, Aeromicrobium sp. LRDC-1; settings: 50 mM Tris-HCl pH 8.0, 1% BSA, 37 °C, 25 nM RALH, 5 min

**Q.** For `C[C@H]1CCCC(=O)CCC/C=C/c2cc(O)cc(O)c2C(=O)O1` [I, ZEN], which Km [1] is on record?
**A.** The Km was 24 µM.

**Q.** And the “% decrease in ATPase activity at 50 μM” value (ScHsp82 (ScHSP82))?
**A.** Its value is 53%.

**Q.** Which Km [2] does the source give for `C[C@@H]1C[C@H]2O[C@@H]2/C=C\C=C\C(=O)Cc2c(Cl)c(O)cc(O)c2C(=O)O1` [III, RAD] here?
**A.** Its Km is 1200 µM.
